In the NIST ThermoML archive (doi:10.1016/j.tca.2017.09.013):
± gives the expanded uncertainty stated by the source.

Tests used:
[1] = Molar enthalpy of transition or fusion; conditions: Crystal; DSC
[2] = molar heat capacity at constant pressure; conditions: 101.33 kPa, Metastable liquid, Small sample (50 mg) DSC

Normal melting temperature (Crystal, DTA) | Glass transition temperature (Glass, DSC) | Molar enthalpy of transition or fusion [1] | molar heat capacity at constant pressure ([2]; 408 K) | molar heat capacity at constant pressure ([2]; 413 K) | molar heat capacity at constant pressure ([2]; 418 K) | molar heat capacity at constant pressure ([2]; 423 K) | molar heat capacity at constant pressure ([2]; 428 K) | SMILES
334 ± 3 °C | 115 ± 3 °C | 8.34 ± 0.55 kcal/mol | 268 ± 36 J/K/mol | 269 ± 38 J/K/mol | 271 ± 40 J/K/mol | 272 ± 42 J/K/mol | 274 ± 44 J/K/mol | Nc1cc[nH]c(=O)n1 [4-amino-2-hydroxypyrimidine]
– | – | 6.52 ± 0.693 kcal/mol | – | – | – | – | – | c1ccc2cc3ccccc3cc2c1 [anthracene]
